Assay results taken from patent US11542235B2, “Herbicidal 3-azaspiro[5.5] undecane-8, 10-dione compounds” (SYNGENTA PARTICIPATIONS AG, priority 2018, dated 2023).

Legend:
Assay type in all cases: in vivo
[1] = test system: Alopecurus myosuroides (ALOMY); experiment: Glasshouse herbicidal test, pre- and post-emergence, Alopecurus myosuroides; settings: 250 g/h, evaluated after 13 days, five point scale; for percentage damage caused to the plant, ALOMY POST: post-emergence; for percentage damage caused to the plant, ALOMY PRE: pre-emergence
In short: (§1)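 Herbicidal effect was scored 13 days after a 250 g/h spray, using bands of 0-19% (1) through 80-100% (5). Sowing preceded spraying by 1 day for pre-emergence and 8 days for post-emergence. The glasshouse ran at 24/16 °C with 14 h light.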

Lolium perenne (LOLPE) = experiment: Glasshouse herbicidal test, pre- and post-emergence, Lolium perenne; settings: 250 g/h, evaluated after 13 days, five point scale; for percentage damage caused to the plant, LOLPE POST: post-emergence; for percentage damage caused to the plant, LOLPE PRE: pre-emergence
In short: as §1

[2] = test system: Echinochloa crus-galli (ECHCG); experiment: Glasshouse herbicidal test, pre- and post-emergence, Echinochloa crus-galli; settings: 250 g/h, evaluated after 13 days, five point scale; for percentage damage caused to the plant, ECHCG POST: post-emergence; for percentage damage caused to the plant, ECHCG PRE: pre-emergence
In short: as §1

Avena fatua (AVEFA) = experiment: Glasshouse herbicidal test, pre- and post-emergence, Avena fatua; settings: 250 g/h, evaluated after 13 days, five point scale; for percentage damage caused to the plant, AVEFA POST: post-emergence; for percentage damage caused to the plant, AVEFA PRE: pre-emergence
In short: as §1

Setaria faberi (SETFA) = experiment: Glasshouse herbicidal test, pre- and post-emergence, Setaria faberi; settings: 250 g/h, evaluated after 13 days, five point scale; for percentage damage caused to the plant, SETFA POST: post-emergence; for percentage damage caused to the plant, SETFA PRE: pre-emergence
In short: as §1

CC#Cc1cc(C)c(C2C(=O)CC3(CCN(C(=O)C(C)(Cl)Cl)CC3)CC2=O)c(C)c1 [Compound A27]
5 (5=80-100%): percentage damage caused to the plant, ALOMY POST [1] | percentage damage caused to the plant, ALOMY PRE [1] | percentage damage caused to the plant, LOLPE POST (Lolium perenne (LOLPE)) | percentage damage caused to the plant, LOLPE PRE (Lolium perenne (LOLPE)) | percentage damage caused to the plant, ECHCG POST [2] | percentage damage caused to the plant, ECHCG PRE [2] | percentage damage caused to the plant, AVEFA POST (Avena fatua (AVEFA)) | percentage damage caused to the plant, AVEFA PRE (Avena fatua (AVEFA)) | percentage damage caused to the plant, SETFA POST (Setaria faberi (SETFA)) | percentage damage caused to the plant, SETFA PRE (Setaria faberi (SETFA))

CC#Cc1cc(C)c(C2C(=O)CC3(CCN(C(=O)C(Cl)Cl)CC3)CC2=O)c(C)c1 [Compound A28]
5 (5=80-100%): percentage damage caused to the plant, ALOMY POST [1] | percentage damage caused to the plant, ALOMY PRE [1] | percentage damage caused to the plant, LOLPE POST (Lolium perenne (LOLPE)) | percentage damage caused to the plant, LOLPE PRE (Lolium perenne (LOLPE)) | percentage damage caused to the plant, ECHCG POST [2] | percentage damage caused to the plant, ECHCG PRE [2] | percentage damage caused to the plant, AVEFA POST (Avena fatua (AVEFA)) | percentage damage caused to the plant, AVEFA PRE (Avena fatua (AVEFA)) | percentage damage caused to the plant, SETFA POST (Setaria faberi (SETFA)) | percentage damage caused to the plant, SETFA PRE (Setaria faberi (SETFA))

CC#Cc1cc(C)c(C2C(=O)CC3(CCN(C(=O)C(F)(F)C(F)F)CC3)CC2=O)c(C)c1 [Compound A29]
5 (5=80-100%): percentage damage caused to the plant, ALOMY POST [1] | percentage damage caused to the plant, ALOMY PRE [1] | percentage damage caused to the plant, LOLPE POST (Lolium perenne (LOLPE)) | percentage damage caused to the plant, LOLPE PRE (Lolium perenne (LOLPE)) | percentage damage caused to the plant, ECHCG POST [2] | percentage damage caused to the plant, ECHCG PRE [2] | percentage damage caused to the plant, AVEFA POST (Avena fatua (AVEFA)) | percentage damage caused to the plant, AVEFA PRE (Avena fatua (AVEFA)) | percentage damage caused to the plant, SETFA POST (Setaria faberi (SETFA)) | percentage damage caused to the plant, SETFA PRE (Setaria faberi (SETFA))

CC#Cc1cc(C)c(C2=C(OC(=O)C(C)(C)C)CC3(CCN(OC)CC3)CC2=O)c(C)c1 [Compound P1]
5 (5=80-100%): percentage damage caused to the plant, ALOMY POST [1] | percentage damage caused to the plant, ALOMY PRE [1] | percentage damage caused to the plant, LOLPE POST (Lolium perenne (LOLPE)) | percentage damage caused to the plant, LOLPE PRE (Lolium perenne (LOLPE)) | percentage damage caused to the plant, ECHCG POST [2] | percentage damage caused to the plant, ECHCG PRE [2] | percentage damage caused to the plant, AVEFA POST (Avena fatua (AVEFA)) | percentage damage caused to the plant, AVEFA PRE (Avena fatua (AVEFA)) | percentage damage caused to the plant, SETFA POST (Setaria faberi (SETFA)) | percentage damage caused to the plant, SETFA PRE (Setaria faberi (SETFA))

CC#Cc1cc(C)c(C2=C(OC(C)=O)CC3(CCN(OC)CC3)CC2=O)c(C)c1 [Compound P2]
5 (5=80-100%): percentage damage caused to the plant, ALOMY POST [1] | percentage damage caused to the plant, ALOMY PRE [1] | percentage damage caused to the plant, LOLPE POST (Lolium perenne (LOLPE)) | percentage damage caused to the plant, LOLPE PRE (Lolium perenne (LOLPE)) | percentage damage caused to the plant, ECHCG POST [2] | percentage damage caused to the plant, ECHCG PRE [2] | percentage damage caused to the plant, AVEFA POST (Avena fatua (AVEFA)) | percentage damage caused to the plant, AVEFA PRE (Avena fatua (AVEFA)) | percentage damage caused to the plant, SETFA POST (Setaria faberi (SETFA)) | percentage damage caused to the plant, SETFA PRE (Setaria faberi (SETFA))

CC#Cc1cc(C)c(C2=C(OC(=O)OC)CC3(CCN(OC)CC3)CC2=O)c(C)c1 [Compound P3]
5 (5=80-100%): percentage damage caused to the plant, ALOMY POST [1] | percentage damage caused to the plant, ALOMY PRE [1] | percentage damage caused to the plant, LOLPE POST (Lolium perenne (LOLPE)) | percentage damage caused to the plant, LOLPE PRE (Lolium perenne (LOLPE)) | percentage damage caused to the plant, ECHCG POST [2] | percentage damage caused to the plant, ECHCG PRE [2] | percentage damage caused to the plant, AVEFA POST (Avena fatua (AVEFA)) | percentage damage caused to the plant, AVEFA PRE (Avena fatua (AVEFA)) | percentage damage caused to the plant, SETFA POST (Setaria faberi (SETFA)) | percentage damage caused to the plant, SETFA PRE (Setaria faberi (SETFA))

CC#Cc1cc(C)c(C2=C(OC(C)=O)CC3(CCN(C(C)=O)CC3)CC2=O)c(C)c1 [Compound P4, [3-acetyl-9-(2,6-dimethyl-4-prop-1-ynyl-phenyl)-10-oxo-3-azaspiro[5.5]undec-8-en-8-yl] acetate]
5 (5=80-100%): percentage damage caused to the plant, ALOMY POST [1] | percentage damage caused to the plant, ALOMY PRE [1] | percentage damage caused to the plant, LOLPE POST (Lolium perenne (LOLPE)) | percentage damage caused to the plant, LOLPE PRE (Lolium perenne (LOLPE)) | percentage damage caused to the plant, ECHCG POST [2] | percentage damage caused to the plant, ECHCG PRE [2] | percentage damage caused to the plant, AVEFA POST (Avena fatua (AVEFA)) | percentage damage caused to the plant, AVEFA PRE (Avena fatua (AVEFA)) | percentage damage caused to the plant, SETFA PRE (Setaria faberi (SETFA))

CC#Cc1cc(C)c(C2=C(OC(=O)OC)CC3(CCN(C(C)=O)CC3)CC2=O)c(C)c1 [Compound P5]
5 (5=80-100%): percentage damage caused to the plant, ALOMY POST [1] | percentage damage caused to the plant, ALOMY PRE [1] | percentage damage caused to the plant, LOLPE POST (Lolium perenne (LOLPE)) | percentage damage caused to the plant, LOLPE PRE (Lolium perenne (LOLPE)) | percentage damage caused to the plant, ECHCG POST [2] | percentage damage caused to the plant, ECHCG PRE [2] | percentage damage caused to the plant, AVEFA POST (Avena fatua (AVEFA)) | percentage damage caused to the plant, AVEFA PRE (Avena fatua (AVEFA)) | percentage damage caused to the plant, SETFA POST (Setaria faberi (SETFA)) | percentage damage caused to the plant, SETFA PRE (Setaria faberi (SETFA))

CC#Cc1cc(C)c(C2=C(OC(=O)C(C)C)CC3(CCN(C(=O)C(C)C)CC3)CC2=O)c(C)c1 [Compound P7]
5 (5=80-100%): percentage damage caused to the plant, ALOMY POST [1] | percentage damage caused to the plant, ALOMY PRE [1] | percentage damage caused to the plant, LOLPE POST (Lolium perenne (LOLPE)) | percentage damage caused to the plant, LOLPE PRE (Lolium perenne (LOLPE)) | percentage damage caused to the plant, ECHCG POST [2] | percentage damage caused to the plant, ECHCG PRE [2] | percentage damage caused to the plant, AVEFA POST (Avena fatua (AVEFA)) | percentage damage caused to the plant, AVEFA PRE (Avena fatua (AVEFA)) | percentage damage caused to the plant, SETFA POST (Setaria faberi (SETFA)) | percentage damage caused to the plant, SETFA PRE (Setaria faberi (SETFA))

CC#Cc1cc(C)c(C2=C(OC(=O)Oc3ccccc3)CC3(CCN(C(C)=O)CC3)CC2=O)c(C)c1 [Compound P9]
5 (5=80-100%): percentage damage caused to the plant, ALOMY POST [1] | percentage damage caused to the plant, ALOMY PRE [1] | percentage damage caused to the plant, LOLPE POST (Lolium perenne (LOLPE)) | percentage damage caused to the plant, LOLPE PRE (Lolium perenne (LOLPE)) | percentage damage caused to the plant, ECHCG PRE [2] | percentage damage caused to the plant, AVEFA POST (Avena fatua (AVEFA)) | percentage damage caused to the plant, AVEFA PRE (Avena fatua (AVEFA)) | percentage damage caused to the plant, SETFA POST (Setaria faberi (SETFA)) | percentage damage caused to the plant, SETFA PRE (Setaria faberi (SETFA))

CC#Cc1cc(C)c(C2=C(OC(=O)OC(C)C)CC3(CCN(C(C)=O)CC3)CC2=O)c(C)c1 [Compound P10]
5 (5=80-100%): percentage damage caused to the plant, ALOMY POST [1] | percentage damage caused to the plant, ALOMY PRE [1] | percentage damage caused to the plant, LOLPE POST (Lolium perenne (LOLPE)) | percentage damage caused to the plant, LOLPE PRE (Lolium perenne (LOLPE)) | percentage damage caused to the plant, ECHCG POST [2] | percentage damage caused to the plant, ECHCG PRE [2] | percentage damage caused to the plant, AVEFA POST (Avena fatua (AVEFA)) | percentage damage caused to the plant, AVEFA PRE (Avena fatua (AVEFA)) | percentage damage caused to the plant, SETFA POST (Setaria faberi (SETFA)) | percentage damage caused to the plant, SETFA PRE (Setaria faberi (SETFA))

CC#Cc1cc(C)c(C2=C(OC(=O)C(C)(C)C)CC3(CCN(C(C)=O)CC3)CC2=O)c(C)c1 [Compound P11]
5 (5=80-100%): percentage damage caused to the plant, ALOMY POST [1] | percentage damage caused to the plant, ALOMY PRE [1] | percentage damage caused to the plant, LOLPE POST (Lolium perenne (LOLPE)) | percentage damage caused to the plant, LOLPE PRE (Lolium perenne (LOLPE)) | percentage damage caused to the plant, ECHCG POST [2] | percentage damage caused to the plant, ECHCG PRE [2] | percentage damage caused to the plant, AVEFA POST (Avena fatua (AVEFA)) | percentage damage caused to the plant, AVEFA PRE (Avena fatua (AVEFA)) | percentage damage caused to the plant, SETFA POST (Setaria faberi (SETFA)) | percentage damage caused to the plant, SETFA PRE (Setaria faberi (SETFA))
